Read-outs that look alike come from different tables or passages of the source.
Assay: Solubility of ionic liquid monomers (IL) and their polymers (PIL) in solvents
Format: physicochemical
Conditions: for solubility: 10 mg/ml, IL (monomer), first symbol; for solubility in water: IL monomers
[1] = organic solvent or mixture, ACN, read-out: Solubility (IL/PIL) ACN
[2] = organic solvent or mixture, Acetone, read-out: Solubility (IL/PIL) Acetone
[3] = organic solvent or mixture, DCM, read-out: Solubility (IL/PIL) DCM
[4] = organic solvent or mixture, DMF, read-out: Solubility (IL/PIL) DMF
[5] = organic solvent or mixture, DMSO, read-out: Solubility (IL/PIL) DMSO
[6] = organic solvent or mixture, Ethyl acetate, read-out: Solubility (IL/PIL) Ethyl acetate
[7] = organic solvent or mixture, Hexanes, read-out: Solubility (IL/PIL) Hexanes
[8] = organic solvent or mixture, MeOH, read-out: Solubility (IL/PIL) MeOH
[9] = water, H2O, read-out: Solubility (IL/PIL) H2O

| solubility [1] [µg/mL] | solubility [2] [µg/mL] | solubility [3] [µg/mL] | solubility [4] [µg/mL] | solubility [5] [µg/mL] | solubility [6] [µg/mL] | solubility [7] [µg/mL] | solubility [8] [µg/mL] | solubility [9] [µg/mL] | solubility in water (water) | SMILES |
| --- | --- | --- | --- | --- | --- | --- | --- | --- | --- | --- |
| > 10000 | > 10000 | > 10000 | > 10000 | > 10000 | > 10000 | < 10000 | > 10000 | < 10000 |  | C=Cc1cn(Cc2ccccc2)n[n+]1C [BMVT Tf2N, 1-Benzyl-3-methyl-4-vinyl-triazolium bis(trifluoromethansulfonyl)amide] |
| > 10000 | > 10000 | < 10000 | > 10000 | > 10000 | > 10000 | < 10000 | > 10000 | < 10000 |  | C=Cc1cn(CCCCCCCCCC)n[n+]1C [DMVT, 1-Decyl-3-methyl-4-vinyl-triazolium bis(trifluoromethansulfonyl)amide] |
| > 10000 | > 10000 | > 10000 | > 10000 | > 10000 | > 10000 | < 10000 | > 10000 | > 10000 | soluble | C=Cc1cn(CCO)n[n+]1C [EtOHMVT, 2-(3-Methyl-4vinyl-triazolium-1-yl)ethanol bis(trifluoromethansulfonyl)amide] |
| > 10000 | > 10000 | > 10000 | > 10000 | > 10000 | > 10000 | < 10000 | > 10000 | < 10000 |  | C=Cc1cn(CCCCCC)n[n+]1C [HMVT, 1-Hexyl-3-methyl-4-vinyl-triazolium bis(trifluoromethansulfonyl)amide] |
| > 10000 | > 10000 | > 10000 | > 10000 | > 10000 | > 10000 | < 10000 | > 10000 | < 10000 |  | C=Cc1cn(-c2ccccc2)n[n+]1C [PMVT Tf2N, 1-Phenyl-3-methyl-4-vinyl-triazolium bis(trifluoromethansulfonyl)amide] |
| > 10000 | > 10000 | > 10000 | > 10000 | > 10000 | > 10000 | < 10000 | > 10000 | > 10000 | soluble | C=Cc1cn(CCOCCOCCOC)n[n+]1C [TEGMVT, 1-TEG-3-methyl-4-vinyl-triazolium bis(trifluoromethansulfonyl)amide] |
